Read-outs that look alike come from different tables or passages of the source.
What was measured:
[1] = tested on: Cyclin K; experiment: Western blotting analysis of Cyclin K depletion in cell culture; assay type: cell-based; conditions: A673 cells; for Cyclin K Degrader Activity: Table 2, 1 μM compound, 2 hours
Protocol: Western Blotting Analysis of Cyclin K Depletion in Cell Culture A673 cells were incubated for 2 hours with of 1 μM compound in presence or in absence of 10 μM proteasome inhibitor MG132 (Sigma Aldrich) or NAE (NEDD8 activating enzyme) inhibitor […] (Cell Signalling Technologies). Cells were washed 2× with cold Phosphate Buffered Saline (PBS, Sigma Aldrich), followed by the addition of lysis buffer for 15 minutes on ice before harvesting and centrifugation.
Protein content in the cell lysate was assessed by BCA assay (Thermo Fisher). Samples were then prepared with 4× Laemmlli Buffer (Bio-Rad) and heated to 95° C. for 5 minutes. Each sample was loaded onto a Mini-PROTEAN TGX Stain Free Gel (Bio-Rad) at 50 μg protein/well. SDS-PAGE was performed and then protein was transferred onto a PVDF membrane using a Trans-Blot® Turbo™ Midi PVDF Transfer Pack (Bio-Rad. Membranes were blocked in TBS-T (Invitrogen), 5% (w/v) milk powder (Marvel) overnight at 4° C.
Membranes were incubated with anti-CCNK antibody (rabbit) primary antibody (Abcam) and anti-GAPDH antibody (rabbit) in TBS-T for 2 hours. Membranes were then washed three times with TBS-T, before incubation secondary goat anti-rabbit HRP antibody (Cell Signalling Technologies) followed by 3× washing in TBS-T. Blots were imaged using a Chemidoc imager (Bio-Rad). Cyclin K depletion was measured as the observable drop in band intensity in compound treated samples relative to proteasome-inhibitor treated samples, measured by densitometry (Image Lab).

[2] = molecular target: Human CDK12 wt/CycK (Homo sapiens (Human), UniProt Q9NYV4); experiment: Radiometric protein kinase assay (33PanQinase Activity Assay), CDK12; assay type: biochemical; conditions: for CDK7/CDK12: ratio greater than 1 indicated selectivity for CDK12
Summary of the method: (§1)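 Radiometric 33P assay: ATP, test compound (in 10% DMSO) and premixed substrate/enzyme incubated 60 min at 30 °C, stopped with 2% H3PO4. 33Pi incorporation counted by scintillation; least-squares curve fit.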

[3] = molecular target: Human CDK7/CycH/MAT1 (Homo sapiens (Human), UniProt P50613); experiment: Radiometric protein kinase assay (33PanQinase Activity Assay), CDK7; assay type: biochemical; conditions: Table 1; ATP 3 μM
Summary of the method: as §1

[4] = tested on: A673 cells; experiment: Cellular potency in A673 cells; assay type: cell-based; conditions: for IC50: Homo sapiens, A673 cells
[5] = Table 1, ATP 0.3 μM, read-out: CDK12 IC50
[6] = Table 2, CDK12 kinase activity, read-out: Biochemical Potency IC50
[7] = Table 3, CDK12 kinase activity, read-out: Biochemical Potency IC50
[8] = Table 3, ratio >0.9 is an indicator of Cyclin K degradation

Human CDK12 wt/CycK, sequence (Q9NYV4 whole entry): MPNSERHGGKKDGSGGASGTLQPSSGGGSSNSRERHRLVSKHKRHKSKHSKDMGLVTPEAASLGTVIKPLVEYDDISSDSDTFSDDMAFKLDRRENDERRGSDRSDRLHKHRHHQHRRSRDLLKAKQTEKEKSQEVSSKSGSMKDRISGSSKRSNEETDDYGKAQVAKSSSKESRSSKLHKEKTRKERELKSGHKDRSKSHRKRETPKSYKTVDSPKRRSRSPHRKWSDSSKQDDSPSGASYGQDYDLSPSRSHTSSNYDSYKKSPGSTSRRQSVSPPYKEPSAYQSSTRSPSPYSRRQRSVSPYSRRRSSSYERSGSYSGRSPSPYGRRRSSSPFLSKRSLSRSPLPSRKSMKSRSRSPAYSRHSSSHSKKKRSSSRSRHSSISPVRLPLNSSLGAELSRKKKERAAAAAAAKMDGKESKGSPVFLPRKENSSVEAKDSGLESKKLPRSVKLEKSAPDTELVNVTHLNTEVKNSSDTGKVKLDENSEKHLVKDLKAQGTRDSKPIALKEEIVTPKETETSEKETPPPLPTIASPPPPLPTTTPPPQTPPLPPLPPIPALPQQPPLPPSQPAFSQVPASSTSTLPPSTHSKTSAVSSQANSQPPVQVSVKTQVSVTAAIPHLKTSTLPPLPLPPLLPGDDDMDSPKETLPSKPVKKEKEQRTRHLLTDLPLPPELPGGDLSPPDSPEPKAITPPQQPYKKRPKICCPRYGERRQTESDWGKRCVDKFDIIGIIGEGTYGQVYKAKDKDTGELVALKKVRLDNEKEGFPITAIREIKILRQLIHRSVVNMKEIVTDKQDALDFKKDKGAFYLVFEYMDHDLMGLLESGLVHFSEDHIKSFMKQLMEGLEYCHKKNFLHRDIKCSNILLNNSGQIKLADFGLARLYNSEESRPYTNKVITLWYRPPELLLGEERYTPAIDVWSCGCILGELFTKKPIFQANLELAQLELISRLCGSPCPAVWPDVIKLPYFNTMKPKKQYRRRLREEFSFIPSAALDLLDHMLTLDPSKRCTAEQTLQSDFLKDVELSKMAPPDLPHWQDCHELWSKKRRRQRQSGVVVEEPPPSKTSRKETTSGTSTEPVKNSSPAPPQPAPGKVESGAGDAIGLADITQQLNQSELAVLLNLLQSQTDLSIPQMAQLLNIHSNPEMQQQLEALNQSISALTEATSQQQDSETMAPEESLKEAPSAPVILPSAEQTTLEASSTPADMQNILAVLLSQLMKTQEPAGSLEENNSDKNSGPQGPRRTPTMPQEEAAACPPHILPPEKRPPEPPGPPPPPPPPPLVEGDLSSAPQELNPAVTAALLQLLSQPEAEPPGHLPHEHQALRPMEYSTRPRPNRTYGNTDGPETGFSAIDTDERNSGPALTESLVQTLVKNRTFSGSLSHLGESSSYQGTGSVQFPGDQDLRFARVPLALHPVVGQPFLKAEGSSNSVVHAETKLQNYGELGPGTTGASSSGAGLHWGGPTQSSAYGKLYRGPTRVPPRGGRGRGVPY
Human CDK12 wt/CycK, sequence (O75909 whole entry partner): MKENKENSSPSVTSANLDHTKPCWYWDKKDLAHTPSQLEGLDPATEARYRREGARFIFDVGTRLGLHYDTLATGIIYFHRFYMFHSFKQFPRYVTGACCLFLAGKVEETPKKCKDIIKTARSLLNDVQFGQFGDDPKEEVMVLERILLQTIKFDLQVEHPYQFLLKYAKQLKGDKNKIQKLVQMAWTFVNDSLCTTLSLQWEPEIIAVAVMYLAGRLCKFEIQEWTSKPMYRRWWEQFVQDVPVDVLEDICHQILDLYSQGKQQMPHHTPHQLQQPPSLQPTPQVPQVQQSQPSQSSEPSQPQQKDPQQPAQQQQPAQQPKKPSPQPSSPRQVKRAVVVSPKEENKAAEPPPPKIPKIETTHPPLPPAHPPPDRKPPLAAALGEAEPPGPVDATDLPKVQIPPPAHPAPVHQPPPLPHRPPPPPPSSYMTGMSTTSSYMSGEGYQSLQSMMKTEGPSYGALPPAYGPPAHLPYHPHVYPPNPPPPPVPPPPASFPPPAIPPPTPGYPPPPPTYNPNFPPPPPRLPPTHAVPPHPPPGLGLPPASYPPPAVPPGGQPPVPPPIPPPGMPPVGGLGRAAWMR
Human CDK7/CycH/MAT1, sequence (P50613 whole entry): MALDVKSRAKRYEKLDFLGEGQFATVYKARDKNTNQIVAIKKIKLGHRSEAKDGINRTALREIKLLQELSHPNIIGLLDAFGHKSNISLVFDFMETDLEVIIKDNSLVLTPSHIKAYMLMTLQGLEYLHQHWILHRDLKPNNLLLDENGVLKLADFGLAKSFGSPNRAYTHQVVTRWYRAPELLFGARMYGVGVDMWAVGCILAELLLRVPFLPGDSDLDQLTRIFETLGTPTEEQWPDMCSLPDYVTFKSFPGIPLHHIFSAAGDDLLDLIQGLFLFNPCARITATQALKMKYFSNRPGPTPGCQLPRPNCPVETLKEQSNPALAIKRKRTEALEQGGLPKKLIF
Human CDK7/CycH/MAT1, sequence (P51946 whole entry partner): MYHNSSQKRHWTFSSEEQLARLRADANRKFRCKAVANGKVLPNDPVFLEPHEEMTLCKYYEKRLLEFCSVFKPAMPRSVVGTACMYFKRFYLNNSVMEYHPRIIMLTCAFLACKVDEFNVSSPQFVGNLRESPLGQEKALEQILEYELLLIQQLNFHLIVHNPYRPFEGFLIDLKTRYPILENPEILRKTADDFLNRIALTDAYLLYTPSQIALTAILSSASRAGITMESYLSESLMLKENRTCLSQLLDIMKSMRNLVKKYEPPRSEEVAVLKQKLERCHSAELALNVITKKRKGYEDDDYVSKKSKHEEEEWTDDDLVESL
Human CDK7/CycH/MAT1, sequence (P51948 whole entry partner): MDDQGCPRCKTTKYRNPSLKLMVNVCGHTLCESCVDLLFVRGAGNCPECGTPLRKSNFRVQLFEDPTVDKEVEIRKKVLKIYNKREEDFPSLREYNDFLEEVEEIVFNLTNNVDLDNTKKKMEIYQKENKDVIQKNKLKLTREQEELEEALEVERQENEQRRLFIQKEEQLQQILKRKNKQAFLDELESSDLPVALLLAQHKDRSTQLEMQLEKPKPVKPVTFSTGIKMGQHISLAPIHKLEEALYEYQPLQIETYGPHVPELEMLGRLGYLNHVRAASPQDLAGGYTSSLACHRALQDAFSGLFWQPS

Compound: CCc1cnn2c(NCc3ccc[n+]([O-])c3)cc(N3CCCC[C@H]3CCO)nc12 [Dinaciclib, reference compound]
- Cyclin K degradation (in words) [1]: not cyclin K degraders
- Cyclin K Degrader Activity [1]: −

Compound: Cc1cccn2cc(CNc3cc(NC[C@H]4CCNC[C@@H]4O)nc4c(C(C)C)cnn34)nc12 [H-APPAMP-004, (3R,4R)-4-(((3-isopropyl-7-(((8-methylimidazo[1,2-a]pyridin-2-yl)methyl)amino)pyrazolo[1,5-a]pyrimidin-5-yl)amino)methyl)piperidin-3-ol]
- IC50 [2, 5]: 51.7 nM
- CDK7/CDK12 ([2]; Table 1): 5.90
- IC50 [2, 6]: 55 nM
- IC50 [2, 7]: 51 nM
- IC50 [3]: 305 nM
- IC50 ([4]; A673, Table 2): 8.9 nM
- IC50 ([4]; A673, Table 3): 12 nM
- Ratio of Biochemical Potency: Cellular Potency ([4]; Table 2): 6.2
- Ratio of Biochemical Potency: Cellular Potency [4, 8]: 4.2
- Cyclin K Degrader Activity [1]: ++

Compound: Cc1cccc2nc(CNc3cc(NC[C@H]4CCNC[C@@H]4O)nc4c(C5CC5)cnn34)cn12 [H-APPAMP-025, (3R,4R)-4-(((3-cyclopropyl-7-(((5-methylimidazo[1,2-a]pyridin-2-yl)methyl)amino)pyrazolo[1,5-a]pyrimidin-5-yl)amino)methyl)piperidin-3-ol]
- IC50 [2, 5]: 36 nM
- CDK7/CDK12 ([2]; Table 1): 9.3
- IC50 [2, 6]: 36 nM
- IC50 [2, 7]: 36 nM
- IC50 [3]: 334 nM
- IC50 ([4]; A673, Table 2): 1.5 nM
- IC50 ([4]; A673, Table 3): 1.5 nM
- Ratio of Biochemical Potency: Cellular Potency ([4]; Table 2): 23
- Ratio of Biochemical Potency: Cellular Potency [4, 8]: 23
- Cyclin K Degrader Activity [1]: +++

Compound: Cn1c(CNc2cc(NC[C@H]3CCNC[C@@H]3O)nc3c(C4CC4)cnn23)nc2cc(F)c(F)cc21 [H-APPAMP-036, (3R,4R)-4-(((3-cyclopropyl-7-(((5,6-difluoro-1-methyl-1H-benzo[d]imidazol-2-yl)methyl)amino)pyrazolo[1,5-a]pyrimidin-5-yl)amino)methyl)piperidin-3-ol]
- IC50 [2, 5]: 287 nM
- CDK7/CDK12 ([2]; Table 1): 4.0
- IC50 [2, 7]: 287 nM
- IC50 [3]: 1150 nM
- IC50 ([4]; A673, Table 3): 10.4 nM
- Ratio of Biochemical Potency: Cellular Potency [4, 8]: 28

Compound: O[C@H]1CNCC[C@@H]1CNc1cc(NCc2cn3c(C(F)(F)F)cccc3n2)n2ncc(C3CC3)c2n1 [H-APPAMP-037, (3R,4R)-4-(((3-cyclopropyl-7-(((5-(trifluoromethyl)imidazo[1,2-a]pyridin-2-yl)methyl)amino)pyrazolo[1,5-a]pyrimidin-5-yl)amino)methyl)piperidin-3-ol]
- IC50 [2, 5]: 208 nM
- CDK7/CDK12 ([2]; Table 1): 3.1
- IC50 [2, 7]: 208 nM
- IC50 [3]: 649 nM
- IC50 ([4]; A673, Table 3): 18.1 nM
- Ratio of Biochemical Potency: Cellular Potency [4, 8]: 11

Compound: CCc1cnn2c(NCc3cn4cc(C5CC5)cc(C(F)(F)F)c4n3)cc(NC[C@H]3CCNC[C@@H]3O)nc12 [H-APPAMP-038, (3R,4R)-4-(((7-(((6-cyclopropyl-8-(trifluoromethyl)imidazo[1,2-a]pyridin-2-yl)methyl)amino)-3-ethylpyrazolo[1,5-a]pyrimidin-5-yl)amino)methyl)piperidin-3-ol]
- IC50 [2, 5]: 100 nM
- CDK7/CDK12 ([2]; Table 1): 7.6
- IC50 [2, 7]: 100 nM
- IC50 [3]: 762 nM
- IC50 ([4]; A673, Table 3): 4.6 nM
- Ratio of Biochemical Potency: Cellular Potency [4, 8]: 22

Compound: Cc1cc(C(F)(F)F)cc2nc(CNc3cc(NC[C@H]4CCNC[C@@H]4O)nc4c(C5CC5)cnn34)cn12 [H-APPAMP-039, (3R,4R)-4-(((3-cyclopropyl-7-(((5-methyl-7-(trifluoromethyl)imidazo[1,2-a]pyridin-2-yl)methyl)amino)pyrazolo[1,5-a]pyrimidin-5-yl)amino)methyl)piperidin-3-ol]
- IC50 [2, 5]: 48 nM
- CDK7/CDK12 ([2]; Table 1): 38.1
- IC50 [2, 7]: 48 nM
- IC50 [3]: 1830 nM
- IC50 ([4]; A673, Table 3): 4 nM
- Ratio of Biochemical Potency: Cellular Potency [4, 8]: 12

Compound: Cc1cn2cc(CNc3cc(NC[C@H]4CCNC[C@@H]4O)nc4c(C5CC5)cnn34)nc2cc1C(F)(F)F [H-APPAMP-040, (3R,4R)-4-(((3-cyclopropyl-7-(((6-methyl-7-(trifluoromethyl)imidazo[1,2-a]pyridin-2-yl)methyl)amino)pyrazolo[1,5-a]pyrimidin-5-yl)amino)methyl)piperidin-3-ol]
- IC50 [2, 5]: 48 nM
- CDK7/CDK12 ([2]; Table 1): 31.9
- IC50 [2, 7]: 48 nM
- IC50 [3]: 1530 nM
- IC50 ([4]; A673, Table 3): 5.4 nM
- Ratio of Biochemical Potency: Cellular Potency [4, 8]: 8.9

Compound: CC(C)Oc1cccc2nc(CNc3cc(NC[C@H]4CCNC[C@@H]4O)nc4c(C5CC5)cnn34)cn12 [H-APPAMP-041, (3R,4R)-4-(((3-cyclopropyl-7-(((5-isopropoxyimidazo[1,2-a]pyridin-2-yl)methyl)amino)pyrazolo[1,5-a]pyrimidin-5-yl)amino)methyl)piperidin-3-ol]
- IC50 [2, 5]: 46 nM
- CDK7/CDK12 ([2]; Table 1): 14.1
- IC50 [2, 7]: 46 nM
- IC50 [3]: 650 nM
- IC50 ([4]; A673, Table 3): 9.8 nM
- Ratio of Biochemical Potency: Cellular Potency [4, 8]: 4.7

Compound: O[C@H]1CNCC[C@@H]1CNc1cc(NCc2cn3cc(C4CC4)cc(C(F)(F)F)c3n2)n2ncc(C3CC3)c2n1 [H-APPAMP-042, (3R,4R)-4-(((3-cyclopropyl-7-(((6-cyclopropyl-8-(trifluoromethyl)imidazo[1,2-a]pyridin-2-yl)methyl)amino)pyrazolo[1,5-a]pyrimidin-5-yl)amino)methyl)piperidin-3-ol]
- IC50 [2, 5]: 100 nM
- CDK7/CDK12 ([2]; Table 1): 9.7
- IC50 [2, 7]: 100 nM
- IC50 [3]: 974 nM
- IC50 ([4]; A673, Table 3): 30 nM
- Ratio of Biochemical Potency: Cellular Potency [4, 8]: 3.3

Compound: Cc1cc(C)n2cc(CNc3cc(NC[C@H]4CCNC[C@@H]4O)nc4c(C(C)C)cnn34)nc2n1 [H-APPAMP-043, (3R,4R)-4-(((7-(((5,7-dimethylimidazo[1,2-a]pyrimidin-2-yl)methyl)amino)-3-isopropylpyrazolo[1.5-a]pyrimidin-5-yl)amino)methyl)piperidin-3-ol]
- IC50 [2, 5]: 21 nM
- CDK7/CDK12 ([2]; Table 1): 23
- IC50 [2, 6]: 21 nM
- IC50 [2, 7]: 21 nM
- IC50 [3]: 484 nM
- IC50 ([4]; A673, Table 2): 340 nM
- IC50 ([4]; A673, Table 3): 340 nM
- Ratio of Biochemical Potency: Cellular Potency ([4]; Table 2): 0.06
- Ratio of Biochemical Potency: Cellular Potency [4, 8]: 0.06
- Cyclin K Degrader Activity [1]: −

Compound: CC(C)c1cnn2c(NCc3nc4cc(C5CC5)ccn4n3)cc(NC[C@H]3CCNC[C@@H]3O)nc12 [H-APPAMP-044, (3R,4R)-4-(((7-(((7-cyclopropyl-[1,2,4]triazolo[1,5-a]pyridin-2-yl)methyl)amino)-3-isopropylpyrazolo[1,5-a]pyrimidin-5-yl)amino)methyl)piperidin-3-ol]
- IC50 [2, 5]: 40 nM
- CDK7/CDK12 ([2]; Table 1): 6.7
- IC50 [2, 6]: 40 nM
- IC50 [2, 7]: 40 nM
- IC50 [3]: 269 nM
- IC50 ([4]; A673, Table 2): 44 nM
- IC50 ([4]; A673, Table 3): 44 nM
- Ratio of Biochemical Potency: Cellular Potency ([4]; Table 2): 0.91
- Ratio of Biochemical Potency: Cellular Potency [4, 8]: 0.91
- Cyclin K Degrader Activity [1]: +

Compound: O[C@H]1CNCC[C@@H]1CNc1cc(NCc2cn3ccc(-c4ccccc4)cc3n2)n2ncc(C3CC3)c2n1 [H-APPAMP-045, (3R,4R)-4-(((3-cyclopropyl-7-(((7-phenylimidazo[1,2-a]pyridin-2-yl)methyl)amino)pyrazolo[1,5-a]pyrimidin-5-yl)amino)methyl)piperidin-3-ol]
- IC50 [2, 5]: 18 nM
- CDK7/CDK12 ([2]; Table 1): 27.6
- IC50 [2, 6]: 18 nM
- IC50 [2, 7]: 18 nM
- IC50 [3]: 496 nM
- IC50 ([4]; A673, Table 2): 110 nM
- IC50 ([4]; A673, Table 3): 110 nM
- Ratio of Biochemical Potency: Cellular Potency ([4]; Table 2): 0.16
- Ratio of Biochemical Potency: Cellular Potency [4, 8]: 0.16
- Cyclin K Degrader Activity [1]: −
